ChEMBL document CHEMBL1821710, “Synthesis and antiproliferative evaluation of 3,5-disubstituted 1,2,4-triazoles containing flurophenyl and trifluoromethanephenyl moieties” (2011)

Assays:
Type in all cases: functional
[1] = test system: Jurkat; assay: Growth inhibition of human Jurkat cells after 72 hrs by MTT assay
[2] = test system: NCI-H226; assay: Growth inhibition of human NCI-H226 cells after 72 hrs by MTT assay; details: NCI-H226, 72 h
[3] = Growth inhibition of human NPC-TW01 cells after 72 hrs by MTT assay; details: NPC-TW01, 72 h

| Structure (SMILES) | GI50 [1] [µM] | GI50 [2] [µM] | GI50 [3] [µM] |
| --- | --- | --- | --- |
| COC(=O)c1nc(-c2ccccc2)n(-c2ccc(F)cc2)n1 | 10 | 89.3 | 15.6 |
| COC(=O)c1nc(C)n(-c2ccc(OC)cc2)n1 | > 100 | > 100 | 9.92 |
| CCOC(=O)c1nc(-c2ccc[nH]2)n(-c2ccc(F)cc2)n1 | > 100 | 5.71 | 64.3 |
| CCOC(=O)c1nc(-c2ccc[nH]2)n(-c2ccc(C(F)(F)F)cc2)n1 | > 100 | 5.61 | 76.4 |
| COC(=O)c1nc(-c2ccoc2)n(-c2ccc(C(F)(F)F)cc2)n1 | 97.2 | 6.01 | > 100 |
| COC(=O)c1nc(C)n(-c2cccc(Br)c2)n1 | > 100 | 7.35 | > 100 |
| CCc1nc(C(=O)OC)nn1-c1ccc(F)cc1 | 11 | 71.3 | 15.8 |
| CCCCc1nc(C(=O)OC)nn1-c1ccc(F)cc1 | > 100 | 6.4 | > 100 |
| COC(=O)c1nc(C)n(-c2ccccc2C(F)(F)F)n1 | > 100 | 6.13 | > 100 |
| COC(=O)c1nc(C2CCCC2)n(-c2ccc(C(F)(F)F)cc2)n1 | > 100 | 5.71 | 56.4 |
| COC(=O)c1nc(-c2ccsc2)n(-c2ccc(C(F)(F)F)cc2)n1 | > 100 | 5.74 | 34.9 |
| COC(=O)c1nc(C2CC2)n(-c2ccc(F)cc2)n1 | 9.42 | 16.3 | 95.9 |
| COC(=O)c1nc(C)n(-c2ccc(C(F)(F)F)cc2)n1 | 9.1 | 16.6 | > 100 |
| COC(=O)c1nc(C)n(-c2ccccc2)n1 | > 100 | > 100 | > 100 |
| COC(=O)c1nc(C2CCCCC2)n(-c2ccc(C(F)(F)F)cc2)n1 | > 100 | 5.76 | > 100 |
| COC(=O)c1nc(C2CCCC2)n(-c2ccc(F)cc2)n1 | 9.55 | 70.5 | 10.4 |
| COC(=O)c1nc(-c2ccc[nH]2)n(-c2ccc(F)cc2)n1 | 9.01 | 72 | 9.58 |
| COC(=O)c1nc(-c2ccc[nH]2)n(-c2ccc(C(F)(F)F)cc2)n1 | > 100 | 5.65 | > 100 |
| COC(=O)c1nc(-c2ccc3ccccc3c2)n(-c2ccc(F)cc2)n1 | 18.5 | 79.3 | > 100 |
| CN(Cc1cnc2nc(N)nc(N)c2n1)c1ccc(C(=O)N[C@@H](CCC(=O)O)C(=O)O)cc1 [METHOTREXATE] | 1.25 | 10.2 | 0.1 |
| COC(=O)c1nc(C2CCCCC2)n(-c2ccc(F)cc2)n1 | > 100 | 6.26 | 30.5 |
| COC(=O)c1nc(C)n(-c2ccc(F)cc2)n1 | 8.7 | 11.7 | 15.2 |
| COC(=O)c1nc(-c2ccsc2)n(-c2ccc(F)cc2)n1 | 54 | 6.94 | 10.7 |
| COC(=O)c1nc(C)n(-c2cccc(C(F)(F)F)c2)n1 | 10.6 | 14.3 | > 100 |
| COC(=O)c1nc(-c2ccoc2)n(-c2ccc(F)cc2)n1 | 9.32 | 91.6 | 11.7 |
| COC(=O)c1nc(C(C)C)n(-c2ccc(F)cc2)n1 | > 100 | 6.17 | > 100 |
| COC(=O)c1nc(C)n(-c2ccc(Cl)cc2)n1 | 65.9 | 84 | 17.5 |
